From EPA's ToxValDB 9.5 (doi:10.2903/j.efsa.2007.111r) come the findings set out here.

Data set [1] relates to Tagia sp. To be noted: acute; duration: 14 days; mortality.
Data set [2] relates to Rattus norvegicus.
Data set [3] has as its system Daphnia magna. To be noted: chronic/long-term; duration: 21 days; reproduction.
Data set [4] concerns Colinus virginianus. To be noted: acute; oral; mortality.
For data set [5], the system named is Bibionidae. To be noted: chronic/long-term; duration: 25 days; development.
Data set [6] deals with Oncorhynchus mykiss.
Data set [7] concerns Apis mellifera. To be noted: acute; duration: 48 hours; dermal; mortality.
The test system of data set [8] is Anas platyrhynchos.

Structures are written as SMILES. ≈ marks a conversion by molar mass, not a printed value.

`CCCN(CCC)C(=O)SCc1ccccc1` [Prosulfocarb]: the LC50 in data set [1] is 144 mg/kg; in data set [6] (acute, duration: 96 hours, mortality), 0.84 µg/mL (≈ 3.34 µM). Further, the LD50 in data set [2] (acute, oral, mortality) is 1820 mg/kg-day; in data set [4], above 2250 mg/kg-day; in data set [7], above 80 µg/piece; in data set [8] (short-term, oral, feed, mortality), above 1510 mg/kg-day. The NOAEL in data set [2] (chronic, duration: 2 years, oral, body weight) is 0.5 mg/kg-day; in data set [2] (reproduction developmental, body weight) it was 0.5 mg/kg-day; in data set [2] (reproduction developmental, clinical signs), 10 mg/kg-day; in data set [2] (reproduction developmental, reproduction), above 50 mg/kg-day; in data set [2] (subchronic, duration: 90 days, oral, body weight), 1 mg/kg-day. The NOEC stood at 0.045 mg/L in data set [3]; 1.25 mg/L in data set [5]; 0.31 mg/L in data set [6] (chronic/long-term, duration: 21 days, other). The compound also registered an NOEL in data set [8] (reproductive) of 131 mg/kg-day.

As a reminder, the NOAEL is the highest dose or exposure tested at which no adverse effect was seen.
